Source: the supplement of paper PMC10627819

Assays:
[1] = test system: S. pneumoniae D39V; assay: fitness (endpoint OD595 vs no drug) (fraction); higher = more growth
Method in brief: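 Background-subtracted growth curves were the basis for fitness, taken as the optical density at entry into stationary phase over the robust mean of no-drug control wells. A cap of 1 was applied. The curves came from OD595 readings every 30 min for 14 h at 37 °C, in 384-well plates seeded at OD595 0.01 with 30 µl, or 55 µl for S. pneumoniae.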

[2] = test system: B. subtilis 168; assay: Bliss interaction score (quartile over a dose matrix) (fitness difference); higher = more antagonism (negative = synergy)
Method in brief: (§1)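 Quartiles summarise the Bliss score over technical, biological and donor/recipient replicates, where the score is observed minus expected fitness under a product model. Expected fitness uses single-drug values inferred from combination data. Fitness is OD595 at entry into stationary phase over the plate's robust no-drug mean, capped at 1.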

[3] = test system: S. aureus Newman; assay: as above
Method in brief: as §1

[4] = test system: S. aureus DSM 20231; assay: as above
Method in brief: as §1

[5] = test system: S. pneumoniae D39V; assay: as above
Method in brief: as §1
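For Bliss interaction score (quartile over a dose matrix) in this document: first quartile when negative (synergy) and third quartile when positive (antagonism).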

CCC[C@@H]1C[C@@H](C(=O)N[C@@H]([C@H]2O[C@H](SC)[C@H](O)[C@@H](O)[C@H]2O)[C@@H](C)O)N(C)C1 [Lincomycin] + O=C1CN(/N=C/c2ccc([N+](=O)[O-])o2)C(=O)N1 [Nitrofurantoin]
fitness, [1]
Conditions | first compound 0.2 µg/mL | first compound 0.215 µg/mL | first compound 0.4 µg/mL | first compound 0.43 µg/mL | first compound 0.8 µg/mL | first compound 0.86 µg/mL
partner 1.285 µg/mL | 0.718 | – | 0.677 | – | 0.281 | –
partner 2 µg/mL | – | 0.753 | – | 0.681 | – | 0.392
partner 2.57 µg/mL | 0.775 | – | 0.716 | – | 0.266 | –
partner 4 µg/mL | – | 0.763 | – | 0.7 | – | 0.358
partner 8 µg/mL | – | 0.711 | – | 0.381 | – | 0.141

[1], partner 5.14 µg/mL, one replicate
Conditions | fitness
first compound 0.2 µg/mL | 0.768
first compound 0.4 µg/mL | 0.633
first compound 0.8 µg/mL | 0.189

Conditions | Bliss interaction score
[2] | 0.163
[3] | -0.101
[4] | -0.0943
[5] | -0.118

COc1c(N2C[C@@H]3CCCN[C@@H]3C2)c(F)cc2c(=O)c(C(=O)O)cn(C3CC3)c12 [Moxifloxacin] + CO[C@H]1/C=C/O[C@@]2(C)Oc3c(C)c(O)c4c(O)c(c(/C=N/N5CCN(C)CC5)c(O)c4c3C2=O)NC(=O)/C(C)=C\C=C\[C@H](C)[C@H](O)[C@@H](C)[C@@H](O)[C@@H](C)[C@H](OC(C)=O)[C@@H]1C [Rifampicin]
fitness, [1], one replicate
Conditions | first compound 0.0037 µg/mL | first compound 0.0075 µg/mL | first compound 0.015 µg/mL
partner 0.025 µg/mL | 0.868 | 0.822 | 0.779
partner 0.2 µg/mL | 0 | 0 | 0

fitness, [1]
Conditions | first compound 0.0037 µg/mL | first compound 0.005 µg/mL | first compound 0.0075 µg/mL | first compound 0.01 µg/mL | first compound 0.015 µg/mL | first compound 0.02 µg/mL
partner 0.05 µg/mL | 0.776 | 0.919 | 0.725 | 0.908 | 0.713 | 0.908
partner 0.1 µg/mL | 0.317 | – | 0.295 | – | 0.354 | –
partner 0.2 µg/mL | – | 0.168 | – | 0.196 | – | 0.198

Conditions | Bliss interaction score
[2] | -0.0221
[3] | -0.0223
[4] | -0.0701
[5] | -0.0845

COc1c(N2C[C@@H]3CCCN[C@@H]3C2)c(F)cc2c(=O)c(C(=O)O)cn(C3CC3)c12 [Moxifloxacin] + O=C1CN(/N=C/c2ccc([N+](=O)[O-])o2)C(=O)N1 [Nitrofurantoin]
fitness, [1]
Conditions | first compound 0.0037 µg/mL | first compound 0.005 µg/mL | first compound 0.0075 µg/mL | first compound 0.01 µg/mL | first compound 0.015 µg/mL | first compound 0.02 µg/mL
partner 1.285 µg/mL | 0.969 | – | 0.914 | – | 0.884 | –
partner 2 µg/mL | – | 0.972 | – | 0.961 | – | 0.893
partner 2.57 µg/mL | 0.906 | – | 0.903 | – | 0.912 | –
partner 4 µg/mL | – | 0.949 | – | 0.949 | – | 0.879
partner 8 µg/mL | – | 0.836 | – | 0.872 | – | 0.81

[1], partner 5.14 µg/mL, one replicate
Conditions | fitness
first compound 0.0037 µg/mL | 0.797
first compound 0.0075 µg/mL | 0.748
first compound 0.015 µg/mL | 0.78

Conditions | Bliss interaction score
[2] | 0.0132
[3] | -0.0496
[4] | 0.0448
[5] | 0.0837

O=C1CN(/N=C/c2ccc([N+](=O)[O-])o2)C(=O)N1 [Nitrofurantoin] + CC1=C\[C@@H](O)CC(=O)Cc2nc(co2)C(=O)N2CCC=C2C(=O)O[C@H](C(C)C)[C@H](C)/C=C/C(=O)NC\C=C\1 [Virginiamycin M1]
fitness, [1]
Conditions | first compound 1.285 µg/mL | first compound 2 µg/mL | first compound 2.57 µg/mL | first compound 4 µg/mL | first compound 8 µg/mL
partner 0.5 µg/mL | 0.99 | – | 0.955 | – | –
partner 1 µg/mL | 0.98 | – | 0.962 | – | –
partner 2 µg/mL | 0.972 | 0.867 | 0.949 | 0.879 | 0.872

fitness, [1], one replicate
Conditions | partner 0.15 µg/mL | partner 0.3 µg/mL | partner 0.5 µg/mL | partner 1 µg/mL | partner 2 µg/mL
first compound 2 µg/mL | 0.911 | 0.875 | 0.99 | 0.988 | –
first compound 4 µg/mL | 0.914 | 0.886 | 0.967 | 0.957 | –
first compound 5.14 µg/mL | – | – | 0.917 | 0.972 | ≥ 1
first compound 8 µg/mL | 0.888 | 0.897 | 0.918 | 0.855 | –

Conditions | Bliss interaction score
[2] | 0.129
[3] | 0.0574
[4] | 0.0559
[5] | 0.084

O=C1CN(/N=C/c2ccc([N+](=O)[O-])o2)C(=O)N1 [Nitrofurantoin] + CCN(CC)CCOC(=O)c1ccc(N)cc1 [Procaine]
fitness, [1]
Conditions | partner 85.5 µg/mL | partner 171 µg/mL | partner 342 µg/mL
first compound 1.285 µg/mL | 0.994 | 0.987 | 0.994
first compound 2.57 µg/mL | 0.972 | 0.964 | 0.934

fitness, [1], one replicate
Conditions | first compound 2 µg/mL | first compound 4 µg/mL | first compound 5.14 µg/mL | first compound 8 µg/mL
partner 85.5 µg/mL | 0.964 | 0.951 | 0.921 | 0.858
partner 171 µg/mL | ≥ 1 | 0.979 | 0.943 | 0.908
partner 342 µg/mL | 0.914 | 0.879 | 0.918 | 0.837

Conditions | Bliss interaction score
[2] | 0.106
[3] | 0.0593
[4] | 0.0706
[5] | 0.0619

O=C1CN(/N=C/c2ccc([N+](=O)[O-])o2)C(=O)N1 [Nitrofurantoin] + CN1C2=CC=CC=C2N=C3C1=CC=CC3=O [Pyocyanin]
fitness, [1]
Conditions | partner 0.325 µg/mL | partner 0.65 µg/mL | partner 1.3 µg/mL
first compound 1.285 µg/mL | 0.979 | 0.919 | 0.634
first compound 2.57 µg/mL | 0.94 | 0.796 | 0.444

fitness, [1], one replicate
Conditions | first compound 2 µg/mL | first compound 4 µg/mL | first compound 5.14 µg/mL | first compound 8 µg/mL
partner 0.325 µg/mL | ≥ 1 | ≥ 1 | 0.798 | 0.738
partner 0.65 µg/mL | ≥ 1 | 0.982 | 0.637 | 0.814
partner 1.3 µg/mL | – | – | 0.332 | –

Conditions | Bliss interaction score
[2] | 0.0805
[3] | -0.0575
[4] | -0.0533
[5] | -0.199
